# Non-standard residues stand in square brackets, D forms with d. Residues, ends and D or L forms follow the SMILES beside them. *: point of attachment. Dnp = O=[N+]([O-])c1ccc(*)c([N+](=O)[O-])c1
# Target: T1, collagenase (Homo sapiens, UniProt P03956)
# T1 construct: endogenous in cells; host or cells: normal human skin fibroblasts (culture medium)
# T1 sequence (P03956 100-469): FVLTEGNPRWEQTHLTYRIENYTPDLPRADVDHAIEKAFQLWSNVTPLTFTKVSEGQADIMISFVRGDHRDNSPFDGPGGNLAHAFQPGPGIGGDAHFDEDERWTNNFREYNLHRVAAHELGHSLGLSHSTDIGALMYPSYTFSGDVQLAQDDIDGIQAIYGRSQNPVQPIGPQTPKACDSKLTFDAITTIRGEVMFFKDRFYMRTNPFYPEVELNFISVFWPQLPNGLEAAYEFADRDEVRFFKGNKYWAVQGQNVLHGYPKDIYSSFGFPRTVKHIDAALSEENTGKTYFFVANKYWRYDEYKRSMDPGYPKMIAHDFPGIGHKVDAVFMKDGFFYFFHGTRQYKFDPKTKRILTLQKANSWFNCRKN
# Experiment: Rate of hydrolysis of substrates by collagenase, assayed by HPLC
# Assay type: biochemical
# Settings: Comparison of Substrate; assayed by HPLC (no chromophore)
# Experimental: The following Table I sets forth the relative rates of hydrolysis in the above spectrophotometric assay using the above thiopeptolides as substrates in comparison to the rates of hydrolysis assayed by High Performance Liquid Chromatography (HPLC) of two commercially available substrates for collagenase and two other substrates described in copending Application Ser. No. 450,318, cited hereinbefore.
row,Relative Rate (of hydrolysis),SMILES
1,110,CCOC(=O)CNC(=O)[C@H](C)NC(=O)[C@H](CC(C)C)NC(=O)CNC(=O)[C@H](CC(C)C)NC(=O)[C@@H]1CCCN1C(C)=O [Ac--Pro--Leu--Gly--Leu--Ala--Gly--OC2 H5] (Ac-PLGLAG-OEt)
2,250,CCOC(=O)CNC(=O)[C@H](CC(C)C)NC(=O)[C@H](CC(C)C)NC(=O)CNC(=O)[C@H](CC(C)C)NC(=O)[C@@H]1CCCN1C(C)=O [Ac--Pro--Leu--Gly--Leu--Leu--Gly--OC2 H5] (Ac-PLGLLG-OEt)
3,5,CC[C@H](C)[C@H](NC(=O)CNC(=O)[C@H](CCC(N)=O)NC(=O)[C@@H]1CCCN1c1ccc([N+](=O)[O-])cc1[N+](=O)[O-])C(=O)N[C@@H](C)C(=O)NCC(=O)N[C@@H](CCC(N)=O)C(=O)N[C@H](CCCNC(=N)N)C(=O)O [DNP-Pro-Gln-Gly-Ile-Ala-Gly-Gln-D-Arg-OH] (Dnp-PQGIAGQ[dR]-OH)
4,25,CC[C@H](C)[C@H](NC(=O)CNC(=O)[C@H](CC(C)C)NC(=O)[C@@H]1CCCN1c1ccc([N+](=O)[O-])cc1[N+](=O)[O-])C(=O)N[C@@H](C)C(=O)NCC(=O)N[C@@H](CCCNC(=N)N)C(N)=O [DNP-Pro-Leu-Gly-Ile-Ala-Gly-Arg-NH2] (Dnp-PLGIAGR-NH2)

# Reference: US4596675A, “Novel thiopeptolide substrates for vertebrate collagenase” (Monsanto Company, priority 1985, dated 1986)
